In series [1] the test system is lignée cellulaire Thp1. As to the kind of experiment: Cytotoxicity by MTT test on Thp1 cell line. Type of series: cell-based, humains. As to the method: L'évaluation de la cytotoxicité des complexes selon l'invention par test MTT sur la lignée cellulaire Thp1 (lignée cellulaire de monocytes humains) a été réalisée selon Mosmann avec de légères modifications. En bref, les cellules (0,77.10^5 cellules/ml) dans 200 µL du milieu complet [RPMI 1640 supplémenté avec 10% de sérum de veau fœtal (FCS), 2 mM de L-glutamine et des antibiotiques (100 U/ml) pénicilline et 100 µg/ml de streptomycine)]+ PMA (50 ng/ml) ont été ensemencées dans chaque puits de plaques à 96 puits et incubées à 37°C sous atmosphère humidifiée à 5% de CO2 avec 95% d'air. Après une incubation de 96 h, les plaques ont été lavées 3 fois avec du milieu et 100 µl de milieu ont été ajoutés. Diverses concentrations et contrôles appropriés ont ensuite été ajoutés (100 µl) et les plaques ont été incubées pendant 72 h à 37°C.
Chaque puits a ensuite été examiné au microscope pour détecter la formation possible de précipité avant l'aspiration du milieu. Une solution de MTT (0,5 mg/ml dans du RPMI, 100 µl) a ensuite été ajoutée à chaque puits. Les cellules ont été incubées pendant 2 h à 37°C. La solution de MTT a ensuite été éliminée et du DMSO (100 µl) a été ajouté pour dissoudre les cristaux de formazan résultants. Les plaques ont été secouées vigoureusement (300 tr/min) pendant 5 min.
L'absorbance a été mesurée à 570 nm avec un spectrophotomètre pour microplaques. Le DMSO a été utilisé comme blanc et la doxorubicine (Sigma Aldrich) comme contrôle positif. Les CC50 ont été calculés par analyse de régression non linéaire traitée sur des courbes dose-réponse, à l'aide du logiciel TableCurve 2D V5.
Background: Tetrazolium assays rely on reduction of a dye to a coloured formazan, in cell work by metabolically active cells.

Series [2] relates to amastigotes axéniques de L. infantum. The experiment in a line: Anti-leishmanial activity on axenic amastigotes of L. infantum (luciferase luminescence). As to conditions: for IC50: Leishmania infantum, mean of three independent experiments.

Where two headings read alike, the source gives them in different places.

As a reminder, the CC50 is the concentration giving 50% cytotoxicity.

For `CCCCCCCCCCCCCCCCOP(=O)([O-])OCC[N+](C)(C)C` [Miltéfosine, reference compound], the CC50 in series [1] (Tableau 3, separate experiments, mean of three independent experiments, read-out: Thp1 CC50) was found to be 35 µM; in series [1] (read-out: CC50 sur la lignée cellulaire humaine Thp1), 35 µM. The IC50 in series [2] (read-out: Amastigotes axéniques de L. infantum CI50, Tableau 2) was 0.71 µM; in series [2] (read-out: Amastigotes axéniques de L. infantum CI50, Tableau 3, separate experiments), 0.46 µM. The “Indice de sélectivité CC50/IC50 SI” value is recorded as 49,32 in series [2] (Tableau 2, CC50 Thp1 / CI50 axenic amastigotes of L. infantum); 53,06 in series [2] (Tableau 2, CC50 Thp1 / CI50 axenic amastigotes of L. infantum, listed as miltéfosine); 76,13 in series [2] (Tableau 3, separate experiments, CC50 Thp1 / CI50 axenic amastigotes).

The values above are taken from patent publication EP4271680B1, “GOLD (I) COMPLEXES WITH FLUORINATED N-HETEROCYCLIC CARBENE LIGANDS AND USE THEREOF AS THERAPEUTIC AGENTS” (priority 2020, dated 2022).
